The results in this text go back to patent US7550588B2, “Homotropanes with central nervous system activity” (The Research Foundation of State University of New York, priority 2006, dated 2009).

Read-outs that look alike come from different tables or passages of the source.

In data set [1] the target is T1, Dopamine transporter (DAT) (Rattus norvegicus, UniProt P23977).
T1 construct: striatum and frontal cortex dissected from frozen Sprague-Dawley rat brains (Pel-Freez, Rogers, Ark.); tissue Pel-Freez, Rogers, Ark; host or cells: rat striatum membranes (frozen Sprague-Dawley rat brains)
Put plainly: Displacement of [125I]RTI-55 binding at dopamine transport sites in rat striatum membranes. The conditions noted are these: for binding affinity at DAT (in words): summary of Table 1. Background: Displacement assays read how much labelled ligand stays bound in the presence of the test substance.

Data set [2] has as its target T2, serotonin transporter (SERT) (Rattus norvegicus, UniProt P31652).
T2 construct: striatum and frontal cortex dissected from frozen Sprague-Dawley rat brains (Pel-Freez, Rogers, Ark.); tissue Pel-Freez, Rogers, Ark; host or cells: rat frontal cortex membranes (frozen Sprague-Dawley rat brains)
Description: Displacement of [3H]paroxetine binding at 5-HT transport sites in rat frontal cortex membranes. The conditions noted are these: for Ratio SERT/DAT: SERT binding value divided by DAT binding value; for binding affinity at SERT (in words): summary of Table 1.

[3] abbreviates: [125I]RTI-55 10 pM, rat striatum membranes, mean ± S.E.M., at least three experiments, tested as racemates, read-out: Binding (nM) DAT (converted).
The mark [4] stands for this setting: [3H]paroxetine 0.4 nM, rat frontal cortex membranes, Cheng-Prusoff, mean ± S.E.M., tested as racemates, read-out: Binding (nM) SERT (converted).

T1 sequence (P23977 whole entry): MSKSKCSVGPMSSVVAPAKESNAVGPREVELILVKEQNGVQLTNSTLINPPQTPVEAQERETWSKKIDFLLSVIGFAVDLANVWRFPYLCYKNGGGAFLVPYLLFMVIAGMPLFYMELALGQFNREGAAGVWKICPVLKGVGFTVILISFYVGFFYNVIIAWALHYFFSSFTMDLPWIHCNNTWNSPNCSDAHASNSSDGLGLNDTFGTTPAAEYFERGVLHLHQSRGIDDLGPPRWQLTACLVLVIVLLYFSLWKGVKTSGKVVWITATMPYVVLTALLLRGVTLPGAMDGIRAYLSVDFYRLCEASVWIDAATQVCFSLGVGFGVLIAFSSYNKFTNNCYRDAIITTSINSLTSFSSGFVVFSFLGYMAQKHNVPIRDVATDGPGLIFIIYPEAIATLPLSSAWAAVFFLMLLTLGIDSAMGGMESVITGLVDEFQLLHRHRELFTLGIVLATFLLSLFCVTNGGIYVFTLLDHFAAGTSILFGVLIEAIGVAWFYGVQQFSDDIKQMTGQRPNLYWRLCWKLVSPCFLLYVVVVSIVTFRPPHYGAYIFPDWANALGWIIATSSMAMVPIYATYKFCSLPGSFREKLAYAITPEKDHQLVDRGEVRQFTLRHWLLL
T2 sequence (P31652 whole entry): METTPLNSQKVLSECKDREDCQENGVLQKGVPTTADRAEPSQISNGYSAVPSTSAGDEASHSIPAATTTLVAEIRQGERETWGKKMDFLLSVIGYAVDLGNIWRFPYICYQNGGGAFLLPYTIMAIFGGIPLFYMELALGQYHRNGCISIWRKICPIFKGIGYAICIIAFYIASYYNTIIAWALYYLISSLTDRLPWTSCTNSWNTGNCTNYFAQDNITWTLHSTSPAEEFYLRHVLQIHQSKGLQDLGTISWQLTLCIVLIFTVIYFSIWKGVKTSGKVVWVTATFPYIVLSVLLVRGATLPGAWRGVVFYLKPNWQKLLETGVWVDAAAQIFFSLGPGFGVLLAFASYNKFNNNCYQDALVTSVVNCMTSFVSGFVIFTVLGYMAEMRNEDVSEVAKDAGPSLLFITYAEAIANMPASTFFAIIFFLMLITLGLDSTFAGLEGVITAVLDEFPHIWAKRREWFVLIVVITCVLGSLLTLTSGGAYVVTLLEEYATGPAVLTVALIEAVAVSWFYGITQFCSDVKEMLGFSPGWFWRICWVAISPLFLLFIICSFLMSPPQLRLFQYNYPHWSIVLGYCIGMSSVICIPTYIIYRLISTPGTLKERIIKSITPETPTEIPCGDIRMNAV

The melting point is the temperature of the solid-liquid transition. As to `CCC(=O)C1C(c2ccc(C)cc2)C(c2ccccc2)C2CCC1N(C)C2` (stereo not drawn) [12h, 6-Methyl-2α-phenyl-4β-propionyl-3β-(p-tolyl)-6-azabicyclo[3.2.2]nonane], the melting point lay in the range of 172 to 173 °C. This compound gave an IC50 in data set [1] of 4100 nM. In data set [2], the Ki was > 2500 nM.
As for `CCC(=O)[C@@H]1C2CCC(C[C@@H]1c1ccc3ccccc3c1)CN2C` (relative stereo) [12b, 6-Methyl-3β-(2-naphthyl)-4β-propionyl-6-azabicyclo[3.2.2]nonane], in data set [1], the IC50 was 2.8 nM and the “binding affinity at DAT (in words)” value was “strongest binding affinity”. Also, in data set [2], the Ki is 13.4 ± 0.0138 nM, the “Ratio SERT/DAT” value is recorded as 4.8 and the “binding affinity at SERT (in words)” value is reported as “strongest binding affinity”.
With `CCC(=O)[C@@H]1C2CCC(C[C@H]1c1ccc(C)cc1)CN2C` (relative stereo) [13a, 6-Methyl-4α-propionyl-3β-(p-tolyl)-6-azabicyclo[3.2.2]nonane], the IC50 in data set [1] (setting [3]) is 1160 ± 240 nM. For the same compound, the “binding affinity at DAT (in words)” value in data set [1] is given as “very low binding affinity”. For the same compound, the Ki in data set [2] (setting [4]) is > 2500 nM. Further, the “binding affinity at SERT (in words)” value in data set [2] was “very low binding affinity”.
`CCC(=O)[C@H]1[C@@H](c2ccc(C)cc2)[C@H](C)[C@@H]2CC[C@H]1N(C)C2` (racemic) [12g, 2α,6-Dimethyl-4β-propionyl-3β-(p-tolyl)-6-azabicyclo[3.2.2]nonane]: the IC50 in data set [1] was 1830 nM. In addition, the Ki in data set [2] is > 2500 nM.
`CCC(=O)C1C(c2ccc(C)cc2)C(C)C2(C)CCC1N(C)C2` (stereo not drawn) [12i, 1,2α,6-Trimethyl-4β-propionyl-3β-(p-tolyl)-6-azabicyclo[3.2.2]nonane] showed an IC50 in data set [1] of 2140 nM. Further, the Ki in data set [2] was > 2500 nM.
Take `C=Cc1ccc(C2CC3CCC(C2C(=O)CC)N(C)C3)cc1` (stereo not drawn) [12e, 3β-(4-Ethenylphenyl)-6-methyl-4β-propionyl-6-azabicyclo[3.2.2]nonane]: the IC50 in data set [1] was 75 nM. Moreover, in data set [2], the Ki is 116 nM and the “Ratio SERT/DAT” value is 1.9.
The corresponding values for `CCC(=O)[C@@H]1C2CCC(C[C@H]1c1ccc3ccccc3c1)CN2C` (relative stereo) [13b, 6-Methyl-3β-(2-naphthyl)-4α-propionyl-6-azabicyclo[3.2.2]nonane] are 20.8 nM, 6.2 nM and “— 0.3”.
The corresponding values for `CCC(=O)C1C(c2ccc(Cl)cc2)CC2CCC1N(C)C2` (stereo not drawn) [12d, 3β-(4-Chlorophenyl)-6-methyl-4β-propionyl-6-azabicyclo[3.2.2]nonane] are 38.1 nM, 860 nM and 23.
Turning to `CCC(=O)C1C(c2ccc(C)cc2)CC2CCC1N(C)C2=O` (stereo not drawn) [compound 27, 6-Methyl-4β-propionyl-3β-(p-tolyl)-6-azabicyclo[3.2.2]nonan-7-one], in data set [1] (setting [3]), the IC50 is 7000 nM. For the same compound, the “binding affinity at DAT (in words)” value in data set [1] is “very low binding affinity”. Further, the Ki in data set [2] (setting [4]) was > 2500 nM. Also, the “binding affinity at SERT (in words)” value in data set [2] is given as “very low binding affinity”.
In the case of `CCC(=O)[C@@H]1C2CCC(CN2)C[C@@H]1c1ccc(C)cc1` (relative stereo) [compound 19, 4β-Propionyl-3β-(p-tolyl)-6-azabicyclo [3.2.2]nonane], the IC50 in data set [1] was 24.9 ± 5.6 nM. For the same compound, in data set [2], the Ki came out at 156 ± 26 nM and the “Ratio SERT/DAT” value came out at 6.3.
`C=C(C)c1ccc([C@H]2C[C@@H]3CC[C@H]([C@H]2C(=O)CC)N(C)C3)cc1` (racemic) [12f, 6-Methyl-4β-propionyl-3β-(4-isopropenylphenyl)-6-azabicyclo[3.2.2]nonane] gave an IC50 in data set [1] of 880 nM. Also, in data set [2], the Ki is 32.8 nM and the “Ratio SERT/DAT” value turned out to be 0.03. Moreover, the “selectivity for SERT” value in data set [2] (SERT versus DAT binding) is “most selective for SERT”.
Take `CCC(=O)C1C(c2ccc(C)cc2)C(c2ccccc2)C2(C)CCC1N(C)C2` (stereo not drawn) [12j, 1,6-Dimethyl-2α-phenyl-4β-propionyl-3β-(p-tolyl)-6-azabicyclo[3.2.2]-nonane]: the melting point is 141 to 144 °C. Also, in data set [1], the IC50 is 5600 nM. In addition, in data set [2], the Ki is > 2500 nM.
Take `CCC(=O)C1C2CCC(CC1c1ccc(C)cc1)N(C)C2` (stereo not drawn) [compound 23, 6-Methyl-2α-propionyl-3β-(p-tolyl)-6-azabicyclo[3.2.2]nonane]: the IC50 in data set [1] (setting [3]) was 4700 ± 900 nM. In addition, in data set [1], the “binding affinity at DAT (in words)” value was “very low binding affinity”.
In data set [1], `CCC(=O)[C@H]1[C@@H](c2ccc(C(C)C)cc2)C[C@@H]2CC[C@H]1N(C)C2` (racemic) [12c, 3β-(4-Isopropylphenyl)-6-methyl-4β-propionyl-6-azabicyclo[3.2.2]nonane] gave an IC50 of 7500 nM. Moreover, in data set [2], the Ki was 1760 nM and the “Ratio SERT/DAT” value worked out at 0.23.
`CCC(=O)[C@@H]1C2CCC(C[C@@H]1c1ccc(C)cc1)CN2C` (relative stereo) [12a, 6-Methyl-4β-propionyl-3β-(p-tolyl)-6-azabicyclo[3.2.2]nonane] yielded an IC50 in data set [1] of 117 ± 13 nM. Also, in data set [2], the Ki stood at 2230 ± 410 nM and the “Ratio SERT/DAT” value was 19.
As for `CCC(=O)[C@@H]1C2CCC(CN2)C[C@H]1c1ccc(C)cc1` (relative stereo) [18a, 4β-Propionyl-3α-(p-tolyl)-6-azabicyclo[3.2.2]nonane], in data set [1], the IC50 is 187 ± 55 nM and the “binding affinity at DAT (in words)” value is given as “relatively strong binding”. In data set [2], the Ki worked out at 469 ± 32 nM, the “Ratio SERT/DAT” value was 2.5 and the “binding affinity at SERT (in words)” value was “relatively strong binding”.
In the case of `C=C(C)c1ccc([C@@H]2C[C@@H]3CC[C@@H](NC3)[C@H]2C(=O)CC)cc1` (racemic) [18b, 4β-Propionyl-3α-(4-isopropenylphenyl)-6-azabicyclo[3.2.2]nonane], the IC50 in data set [1] (setting [3]) is 370 nM. Besides, the “binding affinity at DAT (in words)” value in data set [1] was “relatively strong binding”. Further, in data set [2], the “Ratio SERT/DAT” value amounted to 0.02 and the “binding affinity at SERT (in words)” value is on record as “relatively strong binding”. Further, the Ki in data set [2] (setting [4]) was 6.48 nM.
